From US20150218141A1, “SUBSTITUTED CARBAMATE COMPOUNDS” (HOFFMANN-LA ROCHE INC, priority 2012, published 2015)
Where a name gives a salt, the structure may show the parent alone.

Each compound was assayed against T1, hTRPA1 (Homo sapiens, UniProt O75762) (assay: IC50 determination, dose response calcium flux (FLIPR) assay, ChanTest hTRPA1-CHO stably transfected cell line). Conditions: CHO-K1 Tet-On hTRPA1 cells, 30' preincubation, agonist cinnamaldehyde final 100 uM.
T1 construct: host or cells: CHO-K1 Tet-On, Clone 20 (Chinese Hamster Ovary cells, inducible expression)
Assay type: cell-based
Description: IC50 Determination of Exemplified Compounds Dose Response Assay: ChanTest hTRPA1-CHO Stably Transfected Cell Line
CHO-K1 Tet-On_HOMSA_TRPA1_Clone—20
Growth Media for CHO-K1 Tet-On_HOMSA_TRPA1_Clone—20 • Ham's F-12 with 10% tetracycline-free FBS • 1× penicillin-streptomycin • 1× glutamax • 0.01 mg/ml Blasticidin • 0.40 mg/ml Zeocin • The cell line doubling rate was ˜15 hours. […] Experiments were run at 24 hours post induction.
Plating Conditions CHOK1/TRPA1 Cells: • Harvested cells with 0.025% trypsin/EDTA. • Resuspended cells in growth media without selection antibiotics. • Measured cell density and diluted to 2.4×10^5 cells/ml in media containing 1 ug/ml Doxycycline Plate 25 ul/well into 384 well black/clear tissue culture-treated plates. • Incubated overnight at 37° C.
Reagents: • Replacement Buffer: Hank's Balanced Salt Solution, 20 mM HEPES along with 0.005% BSA and 2× Probenecid • Dye Loading Buffer: Cal-3 NW Calcium dye was prepared by dissolving the contents of one vial with […] Hank's Balanced Salt Solution containing 20 mM HEPES. • Control compounds for CHOK1/TRPA1 cells: AP-18, stock 10 mM, prepare 3.5× compound dilution in a Compound Buffer (HBSS/20 mM HEPES/0.005% BSA)—final concentration 10 uM.
Preparation of Cinnamaldehyde (Agonist Addition):
• Specific gravity=1.046 gm/cc • 1.32 gm/1.046 gm/cc=1.26 ml of stock • Add 1.74 ml DMSO=3.3 M stock • Working solution 4.5× (final 100 uM in Compound Buffer: HBSS/20 mM HEPES/0.005% BSA)
Compounds dilutions were prepared from 5 or 10 mM stock (100% DMSO): • Adjustments of volumes and concentrations were made at time of titration to reflect desired final assay concentrations. • Compounds were tested at either 20 μM three folds dilution 11 steps out or 30 μM two folds dilution 11 steps out. • 3 μl of diluted compound were transferred into Weidmann 384-well plate in duplicates side-by-side.
Compound plates were resuspended with 100 ul of HBSS/20 mM HEPES/0.005% BSA buffer (Compound Buffer):
Growth media was removed from the cell plates (20 ul) and 20 ul of the Replacement Buffer was added followed by addition of 25 ul of diluted dye. All three steps were performed using a Plate Washer BioTek 407. The plates were then incubated for 30′ at RT.
After incubation, both the cell and compound plates were brought to the FLIPR and 20 ul of the diluted compounds/antagonist/bk were transferred to the cell plates by the FLIPR. Plates were then incubated for 30′ at room temperature. After 30′ incubation, plates were returned to the FLIPR and 20 ul of 4.5× Cinnamaldehyde was added to the cell plates. During the compound addition as well as agonist addition, fluorescence readings were taken simultaneously from all 384 wells of the cell plate every 1.5 seconds. Five readings were taken to establish a stable baseline, then 20 ul of sample was rapidly (30 ul/sec) and simultaneously added to each well of the cell plate. The fluorescence was continuously monitored before, during and after sample/agonist addition for a total elapsed time of 100 seconds (compound addition) and 120 seconds (agonist addition). Responses (increase in peak fluorescence) in each well following agonist addition was determined. The initial fluorescence reading from each well, prior to ligand stimulation, was used a zero baseline value for the data from that well.

T1 sequence (O75762 whole entry): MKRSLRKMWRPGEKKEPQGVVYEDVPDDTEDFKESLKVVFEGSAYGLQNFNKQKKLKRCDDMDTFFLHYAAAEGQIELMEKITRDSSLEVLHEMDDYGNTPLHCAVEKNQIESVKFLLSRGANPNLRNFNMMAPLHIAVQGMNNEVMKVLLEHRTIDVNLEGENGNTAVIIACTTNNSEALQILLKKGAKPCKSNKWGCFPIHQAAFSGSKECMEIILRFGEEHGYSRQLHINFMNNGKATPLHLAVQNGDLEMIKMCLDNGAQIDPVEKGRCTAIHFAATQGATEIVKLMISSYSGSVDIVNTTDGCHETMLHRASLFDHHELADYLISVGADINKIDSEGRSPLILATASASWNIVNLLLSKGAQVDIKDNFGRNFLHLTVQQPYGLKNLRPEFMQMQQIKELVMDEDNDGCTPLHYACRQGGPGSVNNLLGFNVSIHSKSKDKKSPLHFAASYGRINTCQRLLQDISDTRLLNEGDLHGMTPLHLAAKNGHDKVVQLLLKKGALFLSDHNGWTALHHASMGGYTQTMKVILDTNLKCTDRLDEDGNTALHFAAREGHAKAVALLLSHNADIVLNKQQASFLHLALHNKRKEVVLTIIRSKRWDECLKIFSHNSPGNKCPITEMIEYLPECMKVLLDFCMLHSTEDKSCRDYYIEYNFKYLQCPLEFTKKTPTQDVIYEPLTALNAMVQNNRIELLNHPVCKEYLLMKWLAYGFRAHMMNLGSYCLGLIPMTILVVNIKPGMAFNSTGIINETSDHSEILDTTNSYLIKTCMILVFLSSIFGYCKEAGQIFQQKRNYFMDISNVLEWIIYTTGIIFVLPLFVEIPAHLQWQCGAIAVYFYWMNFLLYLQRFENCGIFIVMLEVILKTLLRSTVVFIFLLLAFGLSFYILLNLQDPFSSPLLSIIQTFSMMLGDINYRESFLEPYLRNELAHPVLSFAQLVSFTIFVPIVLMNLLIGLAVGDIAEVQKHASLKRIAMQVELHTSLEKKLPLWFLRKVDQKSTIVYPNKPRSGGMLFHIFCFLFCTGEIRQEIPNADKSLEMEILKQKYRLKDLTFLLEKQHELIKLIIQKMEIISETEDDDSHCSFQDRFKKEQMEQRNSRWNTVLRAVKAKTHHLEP

SMILES	IC50 [nM]
O=C(Nc1ccc(F)c(F)c1)O[C@@H](CN1CCCC(c2cccc(C(F)(F)F)c2)C1)C(F)(F)F (stereo partly drawn) [Example 67, (3,4-Difluorophenyl)-carbamic acid (S)-2,2,2-trifluoro-1-[3-(3-trifluoromethylphenyl)piperidin-1-ylmethyl]-ethyl ester]	177
CS(=O)(=O)c1cccc(C2CCCN(C[C@H](OC(=O)Nc3ccc(Cl)cc3)C(F)(F)F)C2)c1 (stereo partly drawn) [Example 62, (4-Chlorophenyl)-carbamic acid (S)-2,2,2-trifluoro-1-[3-(3-methanesulfonylphenyl)-piperidin-1-ylmethyl]-ethyl ester hydrochloride]	1160
O=C(Nc1ccc(Cl)cc1)O[C@@H](CN1CCCC(c2cccc(C(F)(F)F)c2)C1)C(F)(F)F (stereo partly drawn) [Example 29, (4-Chlorophenyl)-carbamic acid (S)-2,2,2-trifluoro-1-[3-(3-trifluoromethylphenyl)-piperidin-1-ylmethyl]-ethyl ester hydrochloride]	35.4
O=C(Nc1ccc(Cl)cc1)O[C@@H](CN1CCCC(Oc2ccc(F)cc2)C1)C(F)(F)F (stereo partly drawn) [Example 48, (4-Chlorophenyl)-carbamic acid (S)-1-[3-(4-fluorophenoxy)-piperidin-1-ylmethyl]-2,2,2-trifluoroethyl ester hydrochloride]	147
COc1cccc(OC2CCCN(C[C@H](OC(=O)Nc3ccc(Cl)cc3)C(F)(F)F)C2)c1 (stereo partly drawn) [Example 49, (4-Chlorophenyl)-carbamic acid (S)-1-[3-(3-methoxyphenoxy)-piperidin-1-ylmethyl]-2,2,2-trifluoroethyl ester hydrochloride]	408
O=C(Nc1ccc(Cl)cc1)O[C@@H](CN1CCC[C@H](Oc2ccncc2)C1)C(F)(F)F (racemic) [Example 22a, (4-chloro-phenyl)-carbamic acid 2,2,2-trifluoro-1-[(R)-3-(pyridin-4-yloxy)-piperidin-1-ylmethyl]-ethyl ester]	4150
O=C(Nc1ccc(Cl)cc1)O[C@@H](CN1CCCC(Sc2ccccc2)C1)C(F)(F)F (stereo partly drawn) [Example 44, (4-Chlorophenyl)-carbamic acid (S)-2,2,2-trifluoro-1-(3-phenylsulfanyl-piperidin-1-ylmethyl)-ethyl ester hydrochloride]	172
O=C(C[C@@H](CN1CCC[C@@H](c2cccc(C(F)(F)F)c2)C1)C(F)(F)F)Nc1ccc(Cl)cc1 (racemic) [Example 26, Racemic (S)—N-(4-Chloro-phenyl)-4,4,4-trifluoro-3-[(S)-3-(3-trifluoromethyl-phenyl)-piperidin-1-ylmethyl]-butyramide]	1400
CCOc1cccc(C2CCCN(C[C@H](OC(=O)Nc3ccc(Cl)cc3)C(F)(F)F)C2)c1 (stereo partly drawn) [Example 43, (4-Chlorophenyl)-carbamic acid (S)-1-[3-(3-ethoxyphenyl)-piperidin-1-ylmethyl]-2,2,2-trifluoroethyl ester hydrochloride]	298
O=C(Nc1ccc(Cl)cc1)O[C@@H](CN1CCCC(Oc2cccc(OC(F)(F)F)c2)C1)C(F)(F)F (stereo partly drawn) [Example 50, (4-Chlorophenyl)-carbamic acid (S)-2,2,2-trifluoro-1-[3-(3-trifluoromethoxyphenoxyl)piperidin-1-ylmethyl]-ethyl ester hydrochloride]	55.1
O=C(Nc1ccc(Cl)c(Cl)c1)O[C@@H](CN1CCCC(c2cccc(C(F)(F)F)c2)C1)C(F)(F)F (stereo partly drawn) [Example 66, (3,4-Dichlorophenyl)-carbamic acid(S)-2,2,2-trifluoro-1-[3-(3-trifluoromethyl-phenyl)piperidin-1-ylmethyl]-ethyl ester]	200
O=C(Nc1ccc(Cl)cc1)O[C@@H](CN1CCCC(OCc2cccnc2)C1)C(F)(F)F (stereo partly drawn) [Example 55, (4-Chlorophenyl)-carbamic acid (S)-2,2,2-trifluoro-1-[3-(pyridin-3-ylmethoxy)-piperidin-1-ylmethyl]-ethyl ester hydrochloride]	803

Continued, values first:

IC50 [nM]	SMILES
339	O=C(Nc1ccc(Cl)cc1)OC(CN1CCCC(Cc2ccccc2)C1)C(F)(F)F (centres unmarked) [Example 9, (4-Chlorophenyl)-carbamic acid 1-(3-benzylpiperidin-1-ylmethyl)-2,2,2-trifluoroethyl ester hydrochloride salt (1:1)]
2260	O=C(Nc1ccc(Cl)cc1)OC(CN1CCCC(c2ccccc2)CC1)C(F)(F)F (centres unmarked) [Example 27, (4-Chlorophenyl)-carbamic acid 2,2,2-trifluoro-1-(4-phenyl-azepan-1-ylmethyl)-ethyl ester]
334	COCCOc1cc([C@H]2CCCN(C[C@H](OC(=O)Nc3ccc(Cl)cc3)C(F)(F)F)C2)ccc1F [Example 35, (4-Chlorophenyl)-carbamic acid (S)-2,2,2-trifluoro-1-{(R)-3-[4-fluoro-3-(2-methoxyethoxy)-phenyl]-piperidin-1-ylmethyl}-ethyl ester hydrochloride]
139	O=C(Nc1ccc(Cl)cc1)O[C@@H](CN1CCCC(Oc2ccc(Cl)cc2)C1)C(F)(F)F (stereo partly drawn) [Example 45, (4-Chlorophenyl)-carbamic acid (S)-1-[3-(4-chlorophenoxy)-piperidin-1-ylmethyl]-2,2,2-trifluoroethyl ester hydrochloride]
961	O=C(Nc1ccc(Cl)cc1)O[C@@H](CN1CCC[C@@H](Oc2ccc(Cl)cc2)C1)C(F)(F)F [Example 52b, (4-Chlorophenyl)-carbamic acid (S)-1-[(R)-3-(4-chlorophenoxy)-piperidin-1-ylmethyl]-2,2,2-trifluoroethyl ester hydrochloride]
1760	O=C(Nc1ccc(Cl)cc1)O[C@@H](CN1CCC[C@H](Oc2ccncc2)C1)C(F)(F)F (racemic) [Example 22b, (4-chlorophenyl)-carbamic acid 2,2,2-trifluoro-1-[(S)-3-(pyridin-4-yloxy)-piperidin-1-ylmethyl]-ethyl ester]
1500	O=C(Nc1ccc(Cl)cc1)O[C@@H](CN1CCC[C@@H](c2ccccc2)C1)C(F)(F)F [Example 6, (4-Chlorophenyl)-carbamic acid (S)-2,2,2-trifluoro-1-((S)-3-phenylpiperidin-1-ylmethyl)-ethyl ester hydrochloride]
1340	O=C(Nc1ccc(Cl)cc1)O[C@@H](CN1CCC[C@@H](Cc2ccccc2)C1)C(F)(F)F (single isomer, unassigned) [Example 10]
